Publication PMC10458471, “Electrophysiological Assessment of Newly Synthesized 2,3-Benzodiazepine Derivatives for Inhibiting the AMPA Receptor Channel” (Molecules, 2023)
Like-named read-outs stand apart in the source and are kept apart here.

Columns and labels:
Assay type in all cases: cell-based
[1] = target: T1, GluA2/3 (Rattus norvegicus, UniProt P19491+P19492); experiment: Whole-cell patch-clamp recording of heteromeric GluA2/3 AMPAR expressed in HEK293T cells
T1 construct: expressed in transfected cells; host or cells: HEK293T
T1 sequence (P19491 22-883 isoform P19491-2 limits assumed): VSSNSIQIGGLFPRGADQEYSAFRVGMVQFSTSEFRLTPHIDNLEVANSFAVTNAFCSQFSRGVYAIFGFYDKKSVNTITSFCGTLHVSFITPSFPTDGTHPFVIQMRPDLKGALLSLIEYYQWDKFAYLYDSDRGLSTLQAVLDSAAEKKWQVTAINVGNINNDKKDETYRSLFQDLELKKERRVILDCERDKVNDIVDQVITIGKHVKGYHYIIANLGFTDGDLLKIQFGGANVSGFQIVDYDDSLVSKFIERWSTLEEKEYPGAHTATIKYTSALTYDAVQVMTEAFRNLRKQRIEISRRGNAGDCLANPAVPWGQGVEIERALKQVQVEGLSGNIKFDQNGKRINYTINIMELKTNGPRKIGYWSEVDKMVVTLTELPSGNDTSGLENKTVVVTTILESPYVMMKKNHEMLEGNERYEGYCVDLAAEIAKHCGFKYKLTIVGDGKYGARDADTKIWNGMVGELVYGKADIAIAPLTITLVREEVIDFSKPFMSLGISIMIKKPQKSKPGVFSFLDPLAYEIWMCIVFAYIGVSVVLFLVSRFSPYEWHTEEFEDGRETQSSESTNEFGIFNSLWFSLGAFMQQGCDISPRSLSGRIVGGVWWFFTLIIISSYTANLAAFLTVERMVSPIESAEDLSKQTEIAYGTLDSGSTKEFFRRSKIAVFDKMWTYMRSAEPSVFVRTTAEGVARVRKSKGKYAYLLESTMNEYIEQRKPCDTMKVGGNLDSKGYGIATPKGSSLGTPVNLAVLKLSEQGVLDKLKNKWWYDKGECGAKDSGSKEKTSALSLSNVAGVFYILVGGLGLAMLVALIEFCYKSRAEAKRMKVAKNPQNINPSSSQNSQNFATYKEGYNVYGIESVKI
T1 sequence (P19492 23-888 isoform P19492-2 limits assumed): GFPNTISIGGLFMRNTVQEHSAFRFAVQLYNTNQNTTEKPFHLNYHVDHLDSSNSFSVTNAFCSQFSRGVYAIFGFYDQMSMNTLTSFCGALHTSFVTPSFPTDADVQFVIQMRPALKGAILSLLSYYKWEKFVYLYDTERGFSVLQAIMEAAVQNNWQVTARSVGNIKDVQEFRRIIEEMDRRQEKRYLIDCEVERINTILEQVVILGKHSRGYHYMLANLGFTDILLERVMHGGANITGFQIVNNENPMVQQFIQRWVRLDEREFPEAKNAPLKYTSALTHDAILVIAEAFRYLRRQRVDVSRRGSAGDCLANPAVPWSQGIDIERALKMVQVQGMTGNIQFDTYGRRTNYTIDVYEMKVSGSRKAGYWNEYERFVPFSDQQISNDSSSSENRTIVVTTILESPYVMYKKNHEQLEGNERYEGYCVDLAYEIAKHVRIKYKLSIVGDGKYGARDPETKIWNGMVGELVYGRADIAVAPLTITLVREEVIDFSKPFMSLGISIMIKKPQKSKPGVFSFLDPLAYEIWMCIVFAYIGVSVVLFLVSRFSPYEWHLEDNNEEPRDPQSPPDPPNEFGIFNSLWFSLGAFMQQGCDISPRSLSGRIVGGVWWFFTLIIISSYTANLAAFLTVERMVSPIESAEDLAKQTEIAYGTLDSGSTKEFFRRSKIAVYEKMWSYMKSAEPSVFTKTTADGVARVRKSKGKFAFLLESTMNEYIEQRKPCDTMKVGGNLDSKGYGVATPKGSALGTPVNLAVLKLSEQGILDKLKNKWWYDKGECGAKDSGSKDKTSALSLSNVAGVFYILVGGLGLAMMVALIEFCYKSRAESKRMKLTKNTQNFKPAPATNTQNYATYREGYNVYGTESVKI
Description: (§1) For the DNA preparation, the QIAGEN Plasmid Mini Kit was used to prepare up to 20 µg of high-copy plasmid DNA [30]. All AMPAR subunits utilized in this study included the flip isoform received from S. F. Heinemann (Salk Institute, La Jolla, CA, USA) and sub-cloned in pRK for expression in Human Embryonic Kidney Cells 293 (HEK293T). The human embryonic kidney (HEK293T) cells were obtained from Sigma, Taufkirchen, Germany, and we only used the HEK293T cell line due to their ease of growth and transfection and wide utilization in cell culture. For the transfection, we used the constructs GluA1, GluA2, GluA2/3, and GluA1/2, along with the GFP-expressing construct, as described in our previous work. The transfection reagents utilized were jetPRIME (Polyplus: New York, NY, USA) or Lipofectamine 2000 (Invitrogen; San Diego, CA, USA). The highly fluorescent cells were identified and selected for recording. The selected cells were seeded in Dulbecco Modified Eagle Medium (DMEM) (Sigma, Roedermark, Germany) containing 10% FBS, 0.1 mg/mL streptomycin, and 1 mM sodium pyruvate (Biological Industries; Beit-Haemek, Israel). The cells were incubated at 37 °C with 5% CO2 added to the medium and subcultured twice a week until they reached passage #20. Following a day and a half, the cells were replated on coverslips covered with Laminin (1 mg/mL; Sigma, Roedermark, Germany) for electrophysiological recordings. Our previous work has detailed the DNA preparation, cDNA transient transfection, and cell culture of HEK293T [30, 31, 32, 33].
(§2) After that, a patch was placed in front of a rapid perfusion system comprised of a theta tube flow pipe mounted on a piezoelectric translator that was used to wash the cell continuously from one barrel while the other supplied the compound of interest to the cell. Recordings were conducted 36–48 h after transfection at 22 °C, with a membrane potential of −60 mV. Currents were amplified using an integrated patch amplifier (IPA, Sutter Instruments, Novato, CA, USA), filtered at 2 kHz, and digitized at 10 kHz using SutterPatch Software v. 1.1.1 [46]. […] The extracellular medium contained (in mM): 150 NaCl, 2.8 KCl, 0.5 MgCl2, 2 CaCl2, and 10 HEPES, pH 7.4 adjusted with NaOH. The holding potential was typically −60 mV. The sample size was determined to be eight viable cells to calculate the mean inhibition of the derivative of interest. The solution exchange time (10–90% to peak) was estimated at […] using open-tip control at the end of a recording. Inhibition was calculated by comparing the current observed when the cell was supplied with glutamate alone and when the same cell was supplied with both glutamate and the 2,3-BDZ compounds. The initial tube containing only glutamate was reintroduced to the cell to ensure cellular safety and authenticate the antagonist’s findings. This step ensured that the glutamate-induced current observed before the administration of the antagonist was nearly indistinguishable from the current observed after administration.
(§3) The experiment served two purposes: first, determining the whole-cell current amplitude ratio in the absence and presence of the compounds (A/AI) to derive a constant inhibitory value independent of the rate measurement. Second, as an independent control method, a fast exchange solution flow methodology was employed using piezoelectric actuators, providing the fastest exchange solution with open-tip current rise times in the 100–300 μs range to assess the amplitude of the whole-cell current. Detailed data analysis of this process is provided in the supporting information (Tables S1–S4).
(§4) The data acquired were analyzed using Igor Pro7 (Wave Metrics, Inc., Portland, OR, USA). Receptor desensitization (τw des) and deactivation rates were estimated by fitting the current decay starting from 95% of the peak to the baseline current using a double exponential formulation. […]

[2] = target: T2, GluA1 (Rattus norvegicus, UniProt P19490); experiment: Whole-cell patch-clamp recording of homomeric GluA1 AMPAR expressed in HEK293T cells
T2 construct: expressed in transfected cells; host or cells: HEK293T
T2 sequence (P19490 19-907 isoform P19490-2 limits assumed): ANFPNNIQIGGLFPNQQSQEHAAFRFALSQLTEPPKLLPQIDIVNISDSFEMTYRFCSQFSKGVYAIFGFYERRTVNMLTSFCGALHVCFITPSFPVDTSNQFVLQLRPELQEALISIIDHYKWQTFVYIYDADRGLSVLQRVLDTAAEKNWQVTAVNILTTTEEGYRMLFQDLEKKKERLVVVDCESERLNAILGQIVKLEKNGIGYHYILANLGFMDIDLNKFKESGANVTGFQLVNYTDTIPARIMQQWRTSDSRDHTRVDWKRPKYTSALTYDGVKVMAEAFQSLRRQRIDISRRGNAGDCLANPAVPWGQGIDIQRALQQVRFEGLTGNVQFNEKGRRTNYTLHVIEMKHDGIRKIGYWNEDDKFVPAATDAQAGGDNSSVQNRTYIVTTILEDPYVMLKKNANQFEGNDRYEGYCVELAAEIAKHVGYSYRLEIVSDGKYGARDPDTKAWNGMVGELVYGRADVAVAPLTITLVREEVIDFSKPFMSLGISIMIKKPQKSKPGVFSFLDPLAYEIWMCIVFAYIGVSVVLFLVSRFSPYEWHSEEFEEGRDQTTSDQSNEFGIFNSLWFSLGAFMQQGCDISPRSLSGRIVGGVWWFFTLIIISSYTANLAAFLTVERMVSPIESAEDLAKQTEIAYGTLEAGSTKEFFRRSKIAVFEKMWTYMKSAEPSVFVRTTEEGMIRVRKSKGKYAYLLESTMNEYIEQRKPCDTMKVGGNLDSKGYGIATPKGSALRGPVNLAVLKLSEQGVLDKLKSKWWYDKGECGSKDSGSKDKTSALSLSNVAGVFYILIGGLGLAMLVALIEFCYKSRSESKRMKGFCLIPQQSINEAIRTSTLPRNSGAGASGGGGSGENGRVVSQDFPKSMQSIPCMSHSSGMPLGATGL
Description: as §1, §2, §3, §4

[3] = tested on: AMPA receptor subunits; experiment: Whole-cell patch-clamp recording, statements over all tested AMPAR subunits (GluA1, GluA1/2, GluA2, GluA2/3) in HEK293T cells; conditions: 16 µM compound
Description: as §1, §2, §3, §4

[4] = target: T3, GluA2 (Rattus norvegicus, UniProt P19491); experiment: Whole-cell patch-clamp recording of homomeric GluA2 AMPAR expressed in HEK293T cells
T3 construct: expressed in transfected cells; host or cells: HEK293T
T3 sequence (P19491 22-883 isoform P19491-2 limits assumed): as the sequence (P19491 22-883 isoform P19491-2 limits assumed) above
Description: as §1, §2, §3, §4

[5] = target: T4, GluA1/2 (Rattus norvegicus, UniProt P19490+P19491); experiment: Whole-cell patch-clamp recording of heteromeric GluA1/2 AMPAR expressed in HEK293T cells
T4 construct: expressed in transfected cells; host or cells: HEK293T
T4 sequence (P19490 19-907 isoform P19490-2 limits assumed): as the sequence (P19490 19-907 isoform P19490-2 limits assumed) above
T4 sequence (P19491 22-883 isoform P19491-2 limits assumed): as the sequence (P19491 22-883 isoform P19491-2 limits assumed) above
Description: as §1, §2, §3, §4

[6] = 10 mM glutamate + 16 µM compound, -60 mV, pH 7.4, 22 °C, mean±SEM, n=8
[7] = 10 mM glutamate, 16 µM compound, n=8
[8] = 1 ms 10 mM glutamate + 16 µM compound, n=8
[9] = 500 ms 10 mM glutamate + 16 µM compound, n=8
[10] = log of IC50, read-out: Log IC50 (converted)
[11] = normalized peak current, -60 mV, pH 7.4, 22 °C, read-out: IC50
[12] = washout/recovery, glutamate alone after compound, n=8

COc1cc([N+](=O)[O-])ccc1C1=NNC(=O)Cc2cc3c(cc21)OCO3 [2,3-BDZ-4, 1-(2-Methoxy-4-nitrophenyl)-7,8-(methylenedioxy)-3,5-dihydro-4H-2,3-benzodiazepin-4-one]
Amplitude with compound [1, 6]: 146±14 pA | A/AI (current amplitude ratio without/with compound) [1, 7]: 3.56±0.3 | t deact (weighted deactivation time constant) [1, 8]: 2.8 ± 0.2 ms | t des (weighted desensitization time constant) [1, 9]: 2.6 ± 0.2 ms | IC50 [1, 10]: 6.76 µM | IC50 [1, 11]: 6.69 µM | Amplitude, applying glutamate alone after compound [1, 12]: 516±23 pA | Amplitude with compound [2, 6]: 277±14 pA | A/AI (current amplitude ratio without/with compound) [2, 7]: 3.41±0.2 | t deact (weighted deactivation time constant) [2, 8]: 2.3 ± 0.1 ms | t des (weighted desensitization time constant) [2, 9]: 2.2 ± 0.1 ms | IC50 [2, 10]: 6.76 µM | IC50 [2, 11]: 6.8 µM | Amplitude, applying glutamate alone after compound [2, 12]: 942±44 pA | Effect on desensitization rate [3]: no change | Reduction in AMPAR subunit currents [3]: 3 fold | Effect on deactivation rate of the AMPAR subunits examined ([3]; 1 ms glutamate): no change | Amplitude with compound [4, 6]: 364±17 pA | A/AI (current amplitude ratio without/with compound) [4, 7]: 3.68±0.1 | t deact (weighted deactivation time constant) [4, 8]: 2.7 ± 0.1 ms | t des (weighted desensitization time constant) [4, 9]: 2.5 ± 0.1 ms | IC50 [4, 10]: 6.76 µM | IC50 [4, 11]: 6.75 µM | Amplitude, applying glutamate alone after compound [4, 12]: 1340±52 pA | Amplitude with compound [5, 6]: 170±9 pA | A/AI (current amplitude ratio without/with compound) [5, 7]: 3.44±0.2 | t deact (weighted deactivation time constant) [5, 8]: 2.7 ± 0.2 ms | t des (weighted desensitization time constant) [5, 9]: 5.0 ± 0.3 ms | IC50 [5, 10]: 6.76 µM | IC50 [5, 11]: 6.69 µM | Amplitude, applying glutamate alone after compound [5, 12]: 583±40 pA
